Here are results for 13 molecules from ChEMBL document CHEMBL3399952, “Design and synthesis of novel anti-tuberculosis agents from the celecoxib pharmacophore” (Bioorg Med Chem, 2015).

The source made the active and inactive calls. No cut-off for these calls is given here.

Data set [1] concerns Mycobacterium tuberculosis. Nature of the data set: Antimycobacterial activity against Mycobacterium tuberculosis H37Rv expressing Lux infected in human macrophages assessed as reduction in growth measured at <= 2.5 uM after 72 hrs by bioluminescence assay. In kind it is functional, organism-based.
The subject of data set [2] is Mycobacterium tuberculosis. Put plainly: Antimycobacterial activity against Mycobacterium tuberculosis H37Rv expressing Lux assessed as reduction in growth measured after 3 weeks by bioluminescence assay. In kind it is functional, organism-based. As to conditions: 504 h.
Data set [3] in a line: Cytotoxicity against human macrophages assessed as cell death at > 10 uM by TMRE-based assay. As to conditions: macrophage.
The test system of data set [4] is Mycobacterium tuberculosis. Put plainly: Antimycobacterial activity against Mycobacterium tuberculosis H37Rv assessed as reduction in growth measured at <= 2.5 uM after 72 hrs by CFU assay. In kind it is functional.
Data set [5] concerns Mycobacterium tuberculosis. Nature of the data set: Antimycobacterial activity against Mycobacterium tuberculosis H37Rv expressing Lux infected in human macrophages assessed as reduction in growth measured at 5 to 20 uM after 3 weeks by bioluminescence assay. In kind it is functional, organism-based.
Data set [6] has as its system Mycobacterium tuberculosis. Put plainly: Antimycobacterial activity against Mycobacterium tuberculosis H37Rv expressing Lux assessed as reduction in growth measured at 5 uM after 3 weeks by bioluminescence assay. In kind it is functional, organism-based.
A short description of data set [7]: Cytotoxicity against human macrophages assessed as cell death at 20 uM by TMRE-based assay. As to conditions: read-out: INH. Set-up: species or system Macrophage.
Data set [8] is described as follows: Cytotoxicity against human macrophages assessed as cell death at 1.25 to 40 uM after 48 hrs by TMRE-based assay. As to conditions: macrophage.
Data set [9] concerns Mycobacterium tuberculosis. Put plainly: Antimycobacterial activity against Mycobacterium tuberculosis H37Rv expressing Lux infected in human macrophages assessed as […] reduction in growth measured at 5 uM after 48 hrs by bioluminescence assay. In kind it is functional, organism-based.
Data set [10] deals with Mycobacterium tuberculosis. Nature of the data set: Antimycobacterial activity against Mycobacterium tuberculosis H37Rv assessed as reduction in growth measured after 48 hrs by CFU assay. In kind it is functional.

Regarding `CNC(=O)CCc1cc(-c2ccc(-c3ccc(C(F)(F)F)cc3)cc2)n(-c2ccc(NC(=O)c3ccc(N)cc3)cc2)n1`, the inhibition result in data set [1] is “Active”. In data set [2], the IC50 is 320 nM. The Activity entry in data set [3] is reported as “Toxic”. Also, the “fold change (FC)” value in data set [4] is listed as greater than 1.

In the case of `COc1nc2ccc(Br)cc2cc1[C@@H](c1ccccc1)[C@@](O)(CCN(C)C)c1cccc2ccccc12` [BEDAQUILINE], the IC50 in data set [2] was found to be 50 nM.

As for `CNC(=O)CCc1cc(-c2ccc(-c3ccc(C(F)(F)F)cc3)cc2)n(-c2ccc(NS(=O)(=O)NC(=O)OC(C)(C)C)cc2)n1`, the inhibition result in [5] and in [6] was “Active” each time. In data set [7], the cytotoxicity at 20 µM turned out to be 26%.

In the case of `CNC(=O)CCc1cc(-c2ccc(-c3ccc(C(F)(F)F)cc3)cc2)n(-c2ccc(NC(=O)c3ccncc3Cl)cc2)n1`, the inhibition entry in data set [1] is “Active”. Also, in [2], the IC50 stood at 430 nM. The Activity entry in data set [8] is given as “Non-toxic”. In addition, the “fold change (FC)” value in data set [4] was greater than 1.

As to `NNC(=O)c1ccncc1` [ISONIAZID], the IC50 in data set [2] is 330 nM. Besides, the inhibition result in data set [6] is “Active”.

Consider `CNC(=O)CCc1cc(-c2ccc(-c3ccc(C(F)(F)F)cc3)cc2)nn1-c1ccc(NC(=O)c2ccncc2)cc1`, for which the inhibition entry in data set [1] and in [9] was “Active” each time. Further, the IC50 in data set [2] worked out at 270 nM. In [8], the Activity result is given as “Non-toxic”. In addition, in data set [4], the “fold change (FC)” value is recorded as greater than 1.

Regarding `O=[N+]([O-])c1cn2c(n1)OC[C@@H](OCc1ccc(OC(F)(F)F)cc1)C2` [PRETOMANID], the IC50 in data set [2] is 400 nM.

In the case of `NS(=O)(=O)Nc1ccc(-n2nc(C(F)(F)F)cc2-c2ccc3c(ccc4ccccc43)c2)cc1`, the “fold change (FC)” value in [10] turned out to be 1.

`CNC(=O)CCc1cc(-c2ccc(-c3ccc(C(F)(F)F)cc3)cc2)n(-c2ccc(NS(=O)(=O)N(C)C)cc2)n1`: the IC50 in [2] came out at 2200 nM. Moreover, the inhibition result in data set [5] and in [6] was “Active” each time. Moreover, the cytotoxicity at 20 µM in [7] was 4%.

On to `CCc1nc2ccc(Cl)cn2c1C(=O)NCc1ccc(N2CCC(c3ccc(OC(F)(F)F)cc3)CC2)cc1` [TELACEBEC], for which the IC50 in [2] was less than 3 nM.

As for `CNC(=O)CCc1cc(-c2ccc(-c3ccc(C(F)(F)F)cc3)cc2)n(-c2ccc(NC(=O)c3ccnc(C)c3)cc2)n1`, the inhibition result in [1] and in data set [9] was “Active” throughout. In [2], the IC50 was found to be 290 nM. Also, in data set [8], the Activity entry is given as “Non-toxic”. Also, the “fold change (FC)” value in [4] is reported as greater than 1.

`CNC(=O)CCc1cc(-c2ccc(-c3ccc(C(F)(F)F)cc3)cc2)n(-c2ccc(NC(=O)c3ccncc3)cc2)n1`: the inhibition entry in data set [1] and in data set [9] was “Active” each time. Moreover, in data set [2], the IC50 was determined as 480 nM. In addition, the Activity result in [8] was “Non-toxic”. For the same molecule, the “fold change (FC)” value in [4] is greater than 1.

In the case of `CNC(=O)CCc1cc(-c2ccc(-c3ccc(C(F)(F)F)cc3)cc2)n(-c2ccc(NC(=O)c3cn(C)cn3)cc2)n1`, in data set [1], the inhibition entry is “Active”. Moreover, in [2], the IC50 came to 180 nM. Further, the Activity entry in [8] is on record as “Non-toxic”. For the same molecule, the “fold change (FC)” value in data set [4] is reported as greater than 1.

As a reminder, the IC50 is the midpoint of a concentration-inhibition curve.
